The values below come from paper PMC11061835, “Elucidating the Mechanism of Metabolism of Cannabichromene by Human Cytochrome P450s” (Journal of Natural Products, 2024).

“And” between values parts separate entries of the source, which are not always exact repeats. Equal entries are not always repeated. Some results are limits rather than exact numbers.

The target of series [1] is T1, CYP2J2 in the presence of CPR (Homo sapiens, UniProt P51589).
T1 construct: His-tag; made in house; host or cells: E. coli DH-5α with pTGro7 plasmid (CYP)
T1 sequence (P51589 1-502): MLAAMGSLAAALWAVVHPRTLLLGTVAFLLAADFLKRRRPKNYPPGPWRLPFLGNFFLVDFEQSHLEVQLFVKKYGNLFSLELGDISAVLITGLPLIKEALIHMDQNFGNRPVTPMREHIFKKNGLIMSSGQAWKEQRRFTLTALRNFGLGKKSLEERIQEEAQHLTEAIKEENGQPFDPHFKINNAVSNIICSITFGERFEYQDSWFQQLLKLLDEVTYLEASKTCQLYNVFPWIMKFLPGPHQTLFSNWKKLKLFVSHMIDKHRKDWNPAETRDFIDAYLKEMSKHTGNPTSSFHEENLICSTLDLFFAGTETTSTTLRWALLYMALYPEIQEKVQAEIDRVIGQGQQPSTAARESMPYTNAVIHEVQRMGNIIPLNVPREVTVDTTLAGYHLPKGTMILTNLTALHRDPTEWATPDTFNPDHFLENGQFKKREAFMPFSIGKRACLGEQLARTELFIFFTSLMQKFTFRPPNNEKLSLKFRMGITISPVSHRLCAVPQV
T1 sequence (P16435 1-677 partner): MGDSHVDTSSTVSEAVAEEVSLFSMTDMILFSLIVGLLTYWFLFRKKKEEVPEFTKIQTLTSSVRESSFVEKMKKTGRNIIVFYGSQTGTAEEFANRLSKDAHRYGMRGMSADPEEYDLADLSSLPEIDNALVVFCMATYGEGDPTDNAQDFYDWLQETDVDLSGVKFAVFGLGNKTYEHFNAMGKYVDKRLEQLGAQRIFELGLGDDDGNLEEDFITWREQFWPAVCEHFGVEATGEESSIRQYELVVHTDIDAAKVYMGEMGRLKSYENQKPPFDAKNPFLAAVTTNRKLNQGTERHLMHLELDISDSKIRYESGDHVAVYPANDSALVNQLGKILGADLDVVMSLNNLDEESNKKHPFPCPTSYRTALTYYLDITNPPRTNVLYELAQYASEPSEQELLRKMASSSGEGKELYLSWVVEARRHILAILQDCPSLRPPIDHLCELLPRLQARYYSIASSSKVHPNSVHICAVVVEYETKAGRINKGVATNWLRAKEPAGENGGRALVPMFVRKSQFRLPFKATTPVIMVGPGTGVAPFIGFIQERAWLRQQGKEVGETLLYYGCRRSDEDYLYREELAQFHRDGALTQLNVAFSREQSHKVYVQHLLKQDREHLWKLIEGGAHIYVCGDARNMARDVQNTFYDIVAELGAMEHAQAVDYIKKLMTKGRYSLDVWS
Put plainly: Spectroscopic titration, CYP2J2–CPR complex. Type of series: binding. As for the experimental part:
(§1) For CBC titration to CYP–CPR complex, initially CYPs were dissolved in 400 μL of 0.1 M phosphate buffer (pH = 7.4) keeping the concentration between […]. Following this 50 μL of CPR (50 μM stock) was added to both cuvettes, and the final concentration of both of the proteins was 5–6 μM. Both proteins were initially mixed and incubated for 5 min followed by titration with CBC in the same process as mentioned above. The substrate-bound spectra were then subtracted from substrate-free spectra, and the extent of binding was analyzed using Origin Pro 2020.

The target of series [2] is T2, CYP2D6 in the presence of CPR (Homo sapiens, UniProt P10635).
T2 construct: His-tag; made in house; host or cells: E. coli DH-5α with pTGro7 plasmid (CYP)
T2 sequence (P10635 whole entry, one chain of several): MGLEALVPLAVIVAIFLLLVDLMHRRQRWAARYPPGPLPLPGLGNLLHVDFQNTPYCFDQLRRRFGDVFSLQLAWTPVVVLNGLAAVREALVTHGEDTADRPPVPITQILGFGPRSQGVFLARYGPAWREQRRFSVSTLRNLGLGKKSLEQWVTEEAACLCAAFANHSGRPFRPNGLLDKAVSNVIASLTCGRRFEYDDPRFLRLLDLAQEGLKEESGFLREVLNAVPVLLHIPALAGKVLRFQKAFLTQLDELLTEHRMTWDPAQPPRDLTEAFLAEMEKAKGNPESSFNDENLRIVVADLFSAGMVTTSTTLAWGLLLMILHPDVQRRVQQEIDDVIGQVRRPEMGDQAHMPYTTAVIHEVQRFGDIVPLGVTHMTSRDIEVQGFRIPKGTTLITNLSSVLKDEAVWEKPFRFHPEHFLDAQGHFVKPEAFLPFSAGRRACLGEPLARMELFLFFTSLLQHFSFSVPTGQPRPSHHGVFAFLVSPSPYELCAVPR
The series is described as follows: Spectroscopic titration, CYP2D6–CPR complex. Type of series: binding. On the procedure: as §1

The next series has as its system TRPV1. Also noted: method as in PMID 30697147. The note with it: read-out: agonism toward TRPV1; cited from earlier work.
Series [3] relates to BV2 microglial cells, stimulated with lipopolysaccharide (LPS). Put plainly: Nitric oxide determination (Griess assay) in LPS-stimulated BV2 cells. Type of series: cell-based, mouse. The note with it: 0.1, 1.0, 2.5, 5.0 μM, vs cells treated with LPS only. As for the experimental part: (§2) BV2 cells were a gift from Dr. Bob McCusker, University of Illinois. They were cultured and maintained at 37 °C in a humidified atmosphere of 95% air and 5% CO2 in high-glucose Dulbecco’s modified Eagle’s (DMEM) medium (Cat No. 10-013-CV, Corning Life Sciences), supplemented with 5% heat-inactivated fetal bovine serum (FBS), streptomycin (100 μg/mL), and penicillin (100 units/mL). Stocks of all the minor cannabinoids were made in ethanol and stored at −80 °C and diluted as required before cell treatment. A final concentration of ethanol was maintained at 0.1% in the cell culture experiments.
First, cell viability of BV2 cells was assessed after treatment with cannabinoids, at various concentrations (0.1, 1.0, 2.5, 5.0 μM), utilizing Cayman’s MTT assay. […] Once viability was determined, we measured the production of pro-inflammatory markers such as nitric oxide (NO), interleukin 6 (IL-6), tumor necrosis factor alpha (TNFα), and arginase 1 (Arg1) after BV2 cells were treated with minor cannabinoids and then stimulated with lipopolysaccharide (LPS) to evoke an inflammatory response.
(§3) BV-2 cells were plated at a density of 50 000 cells/well in a 24-well plate at 37 °C under controlled conditions. Cells were pretreated with the minor cannabinoids at various concentrations (0.1, 1.0, 2.5, 5.0 μM) for 4 h and then stimulated with LPS for 24 h. The culture medium was removed and saved for the determination of nitric oxide production through Cayman’s Griess assay. IL-6, TNFα, and Arginase 1 production was also determined utilizing collected medium. For the Greiss assay, in a 96-well plate, 100 μL of culture medium was used, and 50 μL of both Greiss reagent-1 and Greiss reagent-2 was added and incubated for 10 min. The absorbance was measured at 540 nm using a plate reader (SpectraMax iD5). The quantification was done using a calibration curve that was generated using the sodium nitrite standard obtained from Cayman Chemicals.

For series [4] the test system is unchanged. Put plainly: TNFα ELISA in LPS-stimulated BV2 cells. Conditions: 0.1, 1.0, 2.5, 5.0 μM. Type of series: cell-based, mouse. On the procedure: as §2, §3
BV-2 cells were pretreated with the minor cannabinoids as described previously for 4 h in serum media (reduced to 5% FBS). Cells were stimulated with LPS (25 ng/mL in growth media) and allowed to incubate for 24 h. The culture medium was collected, and the concentrations of IL-6 (Cayman Chemicals), TNFα (ThermoFisher Scientific), and arginase 1 (ThermoFisher Scientific) cytokine expression were determined using specific monoclonal antibodies by ELISA kits as per manufacturer’s instructions.

With `CCCCCc1cc(O)c2c(c1)OC(C)(CCC=C(C)C)C=C2` (stereo not shown) [CBC, Cannabichromene], the “ΔAmax (spin state change due to heme perturbation)” value was 0.09 ± 0.00 and ~0.1 in series [1]; 0.04 ± 0.00 and 0.03–0.04 in series [2]. For the same compound, the Kd was 1.19 µM and < 10 µM and ~1 µM in series [1] (read-out: Kd(app)); 3.12 µM and < 10 µM and ~3 µM in series [2] (read-out: Kd(app)). Moreover, the EC50 in the series with TRPV1 is under 10 µM.
With `CCCCCc1cc(O)c2c(c1)OC(C)(CC/C=C(\C)CO)C=C2` (stereo not shown) [8′-hydroxy-CBC], the “effect on NO release/production” value in series [3] was “elevated levels”. Besides, the “effect on TNFα production” value in series [4] is “increase”.
